Assay results as given in patent US6448405B1, “Steroid receptor modulator compounds and methods” (Ligand Pharmaceuticals Incorporated, priority 1994, dated 2002).
Where two headings read alike, the source gives them in different places.

Experiments:
human PR-B = biological target: T1, human PR-B (Homo sapiens, UniProt P06401); test: Co-transfection assay, PR agonist and antagonist activity, CV-1 cells; format: cell-based;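 also: luciferase reporter driven by a hormone response element, co-transfected with human PR-B into CV-1 monkey kidney cells, agonists raise and antagonists lower the reporter signal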
T1 construct: expressed in transfected cells; host or cells: CV-1 cells (African green monkey kidney fibroblasts), transient transfection
T1 sequence (P06401 1-933): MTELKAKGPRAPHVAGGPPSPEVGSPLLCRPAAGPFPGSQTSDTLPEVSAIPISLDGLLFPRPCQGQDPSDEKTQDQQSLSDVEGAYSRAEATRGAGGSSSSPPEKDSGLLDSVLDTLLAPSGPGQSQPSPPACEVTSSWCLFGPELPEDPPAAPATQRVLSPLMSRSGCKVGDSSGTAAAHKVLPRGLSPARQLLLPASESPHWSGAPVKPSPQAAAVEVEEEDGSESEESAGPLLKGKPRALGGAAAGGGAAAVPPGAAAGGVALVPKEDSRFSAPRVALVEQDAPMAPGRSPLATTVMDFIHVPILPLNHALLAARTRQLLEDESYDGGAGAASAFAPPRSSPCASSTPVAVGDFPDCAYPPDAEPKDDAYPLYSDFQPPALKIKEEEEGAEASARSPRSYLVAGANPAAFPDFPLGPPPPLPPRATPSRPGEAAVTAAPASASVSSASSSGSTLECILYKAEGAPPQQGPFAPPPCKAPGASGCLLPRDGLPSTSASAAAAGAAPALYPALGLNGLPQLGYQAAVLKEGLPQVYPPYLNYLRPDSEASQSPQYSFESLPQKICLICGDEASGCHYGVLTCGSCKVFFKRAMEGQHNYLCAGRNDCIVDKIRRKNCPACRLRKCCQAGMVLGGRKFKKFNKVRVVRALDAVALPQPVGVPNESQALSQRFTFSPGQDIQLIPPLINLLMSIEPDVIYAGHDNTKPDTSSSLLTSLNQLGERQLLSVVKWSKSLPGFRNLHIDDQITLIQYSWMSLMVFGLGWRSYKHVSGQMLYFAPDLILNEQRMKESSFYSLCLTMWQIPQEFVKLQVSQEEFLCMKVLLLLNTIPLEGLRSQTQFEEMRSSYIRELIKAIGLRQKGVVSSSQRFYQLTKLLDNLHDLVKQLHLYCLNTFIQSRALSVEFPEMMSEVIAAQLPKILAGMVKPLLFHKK

[1] = biological target: T2, human progesterone receptor A form (PR-A) (Homo sapiens, UniProt P06401); test: PR binding assay, baculovirus extract, [3H] progesterone; conditions: read-out: PR Binding Ki
T2 sequence (P06401 1-769 isoform P06401-2): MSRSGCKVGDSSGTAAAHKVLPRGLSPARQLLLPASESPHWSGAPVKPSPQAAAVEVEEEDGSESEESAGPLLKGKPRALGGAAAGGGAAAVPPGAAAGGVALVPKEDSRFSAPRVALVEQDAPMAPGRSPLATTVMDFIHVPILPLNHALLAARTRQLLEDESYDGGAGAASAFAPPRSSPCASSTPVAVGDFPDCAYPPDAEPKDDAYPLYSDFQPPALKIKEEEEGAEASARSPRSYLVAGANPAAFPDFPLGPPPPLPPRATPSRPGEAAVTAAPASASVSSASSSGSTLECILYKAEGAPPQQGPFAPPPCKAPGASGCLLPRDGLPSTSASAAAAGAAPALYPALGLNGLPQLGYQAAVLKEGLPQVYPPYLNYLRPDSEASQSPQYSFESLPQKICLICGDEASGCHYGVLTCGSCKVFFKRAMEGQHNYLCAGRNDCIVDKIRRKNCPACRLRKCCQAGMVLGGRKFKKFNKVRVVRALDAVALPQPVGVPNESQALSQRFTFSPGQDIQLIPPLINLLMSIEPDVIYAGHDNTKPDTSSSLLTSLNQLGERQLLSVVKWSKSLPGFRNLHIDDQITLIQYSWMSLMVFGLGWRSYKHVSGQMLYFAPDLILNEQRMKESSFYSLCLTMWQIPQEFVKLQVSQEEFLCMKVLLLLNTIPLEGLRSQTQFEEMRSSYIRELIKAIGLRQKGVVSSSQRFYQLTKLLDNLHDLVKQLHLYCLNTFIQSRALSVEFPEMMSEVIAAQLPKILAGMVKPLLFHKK

[2] = system: uterine wet weight in ovariectomized Sprague-Dawely rats; test: Uterine wet weight assay (PR agonists); format: in vivo, rat; conditions: MPA and Compound 210 at 0.3, 1.0 and 3.0 mg/rat; Compound 163 at 3 mg/rat
From the text: The effectiveness of selected compounds of the present invention as PR agonists was investigated in the well recognized uterine wet weight assay, as described in G. J. Marcus, “Mitosis in the rat uterus during the estrous cycle, early pregnancy and early pseudopregnancy”, 10 Biol. Reprod., 447 (1974), S. […] J. Obstet. […] I. Dorfman, “Estrogens” (Ch. 2) and “Antiestrogens” (Ch. 3). in Methods in Hormone Research, ed. R. I. Dorfman, Academic Press, New York, New York, pp101-130 (1969), the disclosures of which are herein incorporated by reference. Four to five week old, ovariectomized, Sprague-Dawely rats (Harlan-Sprague-Dawely, Indianapolis, Ind.) were obtained 1 week after surgery and allowed to acclimate for an additional week after shipment. […] Louis, Mo.) a synthetic estrogen agonist, were fully dissolved in purified sesame oil (Croda, Parsippany, N.J.). […] Additional control groups of rats were administered estrone or vehicle (i.e. sesame oil) alone. Animals were sacrificed on the fourth day of the experiment.

PR, AR, ER, GR and MR = test: cis-trans or co-transfection assay, steroid receptor panel (cross-reactivity); format: cell-based, human; conditions: as seen in the Tables
[3] = biological target: T3, human androgen receptor (AR) (Homo sapiens, UniProt P10275); test: Co-transfection assay, AR agonist and antagonist activity, CV-1 cells (pRShAR); format: cell-based; conditions: for AR Agonist CV-1 Cells Efficacy (%): relative to DHT; for AR Antagonist CV-1 Cells Efficacy (%): % maximal inhibition
T3 construct: expressed in transfected cells; host or cells: CV-1 cells, transient transfection
T3 sequence (P10275 1-920): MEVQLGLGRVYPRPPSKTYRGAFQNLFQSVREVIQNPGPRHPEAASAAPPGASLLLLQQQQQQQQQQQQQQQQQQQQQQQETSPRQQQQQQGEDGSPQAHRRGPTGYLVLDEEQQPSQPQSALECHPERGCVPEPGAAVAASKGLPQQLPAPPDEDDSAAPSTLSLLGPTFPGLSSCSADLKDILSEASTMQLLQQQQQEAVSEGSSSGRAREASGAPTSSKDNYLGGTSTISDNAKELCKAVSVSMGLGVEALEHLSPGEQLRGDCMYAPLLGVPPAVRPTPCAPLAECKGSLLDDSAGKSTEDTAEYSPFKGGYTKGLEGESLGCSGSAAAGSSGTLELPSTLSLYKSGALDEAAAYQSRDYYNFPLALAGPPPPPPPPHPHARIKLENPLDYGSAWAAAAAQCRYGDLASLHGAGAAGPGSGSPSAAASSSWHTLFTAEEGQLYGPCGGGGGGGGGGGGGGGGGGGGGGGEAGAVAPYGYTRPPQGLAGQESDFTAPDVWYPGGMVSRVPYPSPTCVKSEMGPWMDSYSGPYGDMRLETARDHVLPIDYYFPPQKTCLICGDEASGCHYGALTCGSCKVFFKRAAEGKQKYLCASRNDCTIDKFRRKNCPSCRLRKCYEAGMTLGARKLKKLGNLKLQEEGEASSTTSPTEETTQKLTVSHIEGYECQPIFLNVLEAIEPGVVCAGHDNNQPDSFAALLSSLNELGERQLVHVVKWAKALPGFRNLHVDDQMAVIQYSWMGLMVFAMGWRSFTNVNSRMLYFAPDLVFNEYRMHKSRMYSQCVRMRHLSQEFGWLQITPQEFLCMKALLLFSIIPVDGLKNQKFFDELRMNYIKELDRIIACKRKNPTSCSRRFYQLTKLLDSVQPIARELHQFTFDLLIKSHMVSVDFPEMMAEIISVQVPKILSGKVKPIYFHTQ

human AR = biological target: T4, human AR (Homo sapiens, UniProt P10275); test: AR whole cell binding assay, transfected COS-1 cells, 3H-DHT
T4 construct: expressed in transfected cells; host or cells: COS-1 cells, transient transfection
T4 sequence (P10275 1-920): T3 sequence (P10275 1-920)

[4] = read-out: AR Agonist CV-1 Cells Potency, agonist mode, EC50
[5] = antagonist mode, DHT at its EC50
[6] = read-out: AR Antagonist CV-1 Cells Potency, Table 2, antagonist mode, IC50
[7] = read-out: AR Agonist CV-1 Cells Potency, Table 2, agonist mode, EC50

| Compound | EC50 (human PR-B; agonist mode, EC50, read-out: PR Agonist CV-1 Cells Potency) | IC50 (human PR-B; read-out: PR Antagonist CV-1 Cells Potency) | Ki [1] | effect on uterine wet weight when co-administered with estrone [2] | steroid receptor selectivity profile (PR, AR, ER, GR and MR) | EC50 [3] | IC50 [3] | AR Agonist CV-1 Cells Efficacy (%) ([3]; Table 2, agonist mode) | AR Antagonist CV-1 Cells Efficacy (%) ([3]; Table 2, antagonist mode) | AR Agonist CV-1 Cells Efficacy (%) ([3]; agonist mode) | EC50 [3, 4] | Ki (human AR) | AR Antagonist CV-1 Cells Efficacy (%) [3, 5] | IC50 [3, 6] | Ki (human AR; competition with 1 nM 3H-DHT, COS-1 whole cells, three hours at 37° C., read-out: AR Binding Ki) | EC50 [3, 7] |
| --- | --- | --- | --- | --- | --- | --- | --- | --- | --- | --- | --- | --- | --- | --- | --- | --- |
| CC1=CC(C)(C)Nc2ccc3c(c21)C(c1ccc(Cl)cc1)Oc1ccccc1-3 (racemic) [Compound 163, (R/S)-5-(4-Chlorophenyl)-1,2-dihydro-2,2,4-trimethyl-5H-chromeno[3,4-f]quinoline] | 15 nM | 3620 nM | 1 nM | decreased by approximately half | highly selective PR agonists | – | – | – | – | – | – | – | – | – | – | – |
| CC1CC(C)(C)Nc2cc3oc(=O)cc(-c4ccoc4)c3cc21 (racemic) [Compound 405, (R/S)-5-(3-Furyl)-1,2,3,4-tetrahydro-2,2,4-trimethyl-8-pyranono[5,6-g]quinoline] | – | – | – | – | – | > 10000 nM | 77 nM | na (na = not active (i.e. efficacy of <20 and potency of >10,000)) | 89% | na (na = not active (i.e. efficacy of <20 and potency of >10,000)) | > 10000 nM | 6 nM | – | – | – | – |
| CCC1CCNc2cc3oc(=O)cc(C(F)(F)F)c3cc21 (racemic) [Compound 414, (R/S)-4-Ethyl-1,2,3,4-tetrahydro-6-trifluoromethyl-8-pyranono[5,6-g]quinoline] | – | – | – | – | – | 1 nM | > 10000 nM | 118% | na (na = not active (i.e. efficacy of <20 and potency of >10,000)) | – | – | 0.3 nM | na (na = not active (i.e. efficacy of <20 and potency of >10,000)) | > 10000 nM | – | – |
| CC1C(=O)C(C)(C)Nc2cc3[nH]c(=O)cc(C(F)(F)F)c3cc21 (racemic) [Compound 418, (R/S)-1,2,3,4-Tetrahydro-6-trifluoromethyl-2,2,4-trimethyl-8-pyridono[5,6-f]-3-quinolinone] | – | – | – | – | – | > 10000 nM | 200 nM | na (na = not active (i.e. efficacy of <20 and potency of >10,000)) | 63% | na (na = not active (i.e. efficacy of <20 and potency of >10,000)) | > 10000 nM | – | – | – | 1000 nM | – |
| CC1=CC(C)(C)Nc2cc3oc(=O)cc(C(F)(F)F)c3cc21 [Compound 238, 1,2-Dihydro-2,2,4-trimethyl-6-trifluoromethyl-8-pyranono[5,6-g]quinoline] | – | – | – | – | – | 10 nM | > 10000 nM | 96% | na (na = not active (i.e. efficacy of <20 and potency of >10,000)) | – | – | 44 nM | na (na = not active (i.e. efficacy of <20 and potency of >10,000)) | > 10000 nM | – | – |
| CC1=CC(C)(C)Nc2cc3oc(=O)cc(C(F)(F)C(F)(F)F)c3cc21 [Compound 256, 1,2-Dihydro-2,2,4-trimethyl-6-(1,1,2,2,2-pentafluoroethyl)-8-pyranono[5,6-g]quinoline] | – | – | – | – | – | > 10000 nM | 62 nM | na (na = not active (i.e. efficacy of <20 and potency of >10,000)) | 91% | na (na = not active (i.e. efficacy of <20 and potency of >10,000)) | – | 4500 nM | – | – | – | > 10000 nM |
| CC1=CC(C)(C)N(C)c2cc3oc(=O)cc(C(F)(F)F)c3cc21 [Compound 265, 1,2-Dihydro-1,2,2,4-tetramethyl-6-trifluoromethyl-8-pyranono[5,6-g]quinoline] | – | – | – | – | – | > 10000 nM | 56 nM | na (na = not active (i.e. efficacy of <20 and potency of >10,000)) | 78% | na (na = not active (i.e. efficacy of <20 and potency of >10,000)) | – | 23 nM | – | – | – | > 10000 nM |
